Source: US20210187013A1, “Methods of Treating and Preventing Cancer by Disrupting the Binding of Copper in the Map Kinase Pathway” (DUKE UNIVERSITY, priority 2012, published 2021)

Assays:
[1] = tested on: Erk1/2 phosphorylation in Drosophila S2 cells; test: Insulin-stimulated Erk1/2 phosphorylation in S2 cells after preincubation with chelator or silver (immunoblot); type: cell-based; conditions: then human insulin 25 μg/mL
From the text: The copper transporter Ctr1 was identified as one of approximately 300 genes that when knocked down in S2 insect cells reduced phosphorylation of Erk (see, e.g., Friedman, A. and Perrimon, N. (2006) Nature 444:230-234). To explore whether both Ctr11 and the associated Cu^+ transport function are important for Ras signaling to Erk1/2, Cu^+-specific chelation was used to impose copper deficiency on cultured fly S2 cells, S2 cells used for the no-treatment and insulin-only treatment conditions were left in basal medium (Schneider's medium with 10% fetal bovine serum) during the preincubation. S2 cells used for the other treatment conditions were preincubated for 1 hour with chelator or silver as follows: 10 μM tetrathiomolybdate (TTM) and 250 μM bathocupronine disulfonate (BCS) for copper chelation experiments, 10 μM ferrozine, and 250 μM bathophenanthroline disulfonate (BPS) for iron chelation, and 10 μM silver nitrate. Cells were stimulated with human insulin at a concentration of 25 μg/mL of medium. […] (FIG. 3A). […] (FIG. 3B). […] (FIG. 3C).

[2] = biological target: T1, recombinant GST-tagged human Mek1 (Homo sapiens, UniProt Q02750); test: Mek1 in vitro kinase assay (phosphorylation of kinase-dead Erk2); type: biochemical
T1 construct: made in house; host or cells: E. coli BL21(DE3)
T1 sequence (Q02750 whole entry): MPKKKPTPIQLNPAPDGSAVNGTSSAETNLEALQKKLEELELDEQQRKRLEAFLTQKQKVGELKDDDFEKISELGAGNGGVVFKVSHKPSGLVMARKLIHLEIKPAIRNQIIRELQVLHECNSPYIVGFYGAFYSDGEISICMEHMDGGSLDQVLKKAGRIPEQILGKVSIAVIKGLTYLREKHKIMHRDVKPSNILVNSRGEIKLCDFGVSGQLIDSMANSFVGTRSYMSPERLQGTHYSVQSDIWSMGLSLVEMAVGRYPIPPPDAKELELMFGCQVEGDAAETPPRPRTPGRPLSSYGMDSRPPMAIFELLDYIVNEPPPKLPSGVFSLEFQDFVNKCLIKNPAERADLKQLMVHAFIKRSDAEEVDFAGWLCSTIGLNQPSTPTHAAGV
Experimental: Mek1 requires copper for kinase activity in vitro (FIG. 8 and Turski, M. L. et al. (2012), supra). To determine the role copper plays in the stimulation of Mek1-dependent phosphorylation of Erk1/2, a series of in vitro experiments were carried out. For these experiments, purified human Mek1 protein was incubated with a kinase-dead isoform of hErk2 so that assessment of Erk2 phosphorylation mediated by Mek1 could be made in the absence of Erk2 autophosphorylation. Seger, R. et. al. (1991) Proc. Natl. Acad. Sci. U.S.A. 88:6142-6146.
Human Erk2 and human Mek1 were obtained from Addgene and cloned into pGEX4T3 and pGEX6P1 from GE Life Sciences, respectively. Recombinant GST-human Erk2 (hErk2) and GST-human Mek1 (hMek1) were purified from BL21(DE3) bacteria as previously described. […] The concentration was determined using the Bio-Rad DC protein assay (Bio-Rad, Hercules, United States).
Modified version of Mek1 and Erk2 in vitro kinase assay were performed as described previously. […] Reactions were quenched with 5× Laemmli buffer, and a third of the reaction mixture was analyzed by SDS-PAGE via subsequent Western blotting with phosphospecific antibodies. […] Reactions were quenched with 5× Laemmli buffer, and a third of the reaction mixture was analyzed by SDS-PAGE via Western blotting with phosphospecific antibodies.

[3] = Cu2+ affinity of ligands used in the PAR competition study; type: physicochemical; conditions: 1:1 complex
Experimental: To obtain a precise binding affinity, a series of ligand competition studies using PAR were conducted. PAR is a chromogenic chelator forming colored complexes with metal ions. Cu^2+ binding affinity for Mek1 was estimated using competition experiments similar to those described in Zimmermann, M. et. al. (2009) Biochemistry 48:11640-11654, with the divalent metal ligand PAR [4-(2-pyridylazo)resorcinol]. The quantitative release of the 1:1 Cu^2+-/PAR complex on titration of apo-Mek1 was monitored spectrophotometrically at 500 nm (DU 600 spectrophotometer, Beckman Coulter, Brea, United States) in 20 mM Tris (pH 7.2)-100 mM NaCl.
Bidentate PAR forms a 1:1 complex with Cu^2+.
Control titrations under the same pH and ionic strength buffer conditions were performed with EDTA and bovine serum albumin (BSA) to validate the Cu^2+-PAR titration study. Both EDTA and BSA are spectrally silent, with known dissociation constants. EDTA also served to calibrate Cu^2+-PAR affinity relative to the reaction condition used for the experiments.

[4] = tested on: Erk1/2 phosphorylation in mouse embryonic fibroblasts (MEFs); test: Insulin-stimulated Erk1/2 phosphorylation in Ctr1+/+ and Ctr1−/− MEFs; type: cell-based
Experimental: Ctr1^+/+ and Ctr1^−/− mouse embryonic fibroblasts (MEFs) and insulin or fibroblast growth factor (FGF) stimulation experiments. To determine whether copper plays a role in the activation of Erk1/2, which is phosphorylated by Mek1, Ctr1^+/+ and Ctr1^−/− mouse embryonic fibroblasts (MEFs) were evaluated for insulin-stimulated ERK1/2 phosphorylation. Isolation and culture of Ctr1^+/+ and Ctr1^−/− cells were done as described in Lee, J. et al. (2002) J. Biol. Chem. 30:322-329. Insulin or fibroblast growth factor (FGF) stimulation experiments were done with plates measuring […], with one plate per time point. Cells were allowed to reach ˜95% confluence and then serum starved for 16 to 48 hours. Recombinant human insulin (Invitrogen, Carlsbad, United States) was added at a final concentration of 200 nM, and recombinant human basic FGF (Invitrogen, Carlsbad, United States) was added at a final concentration of 10 ng/ml, with the exception of the time zero plate. […]

[5] = tested on: BRaf^V600E-transformed MEFs; test: Tumor growth in mice injected with BRaf^V600E-transformed MEFs; type: in vivo; conditions: 2 mg/day oral TM
From the text: FIGS. 12A-12C are graphs showing that copper is required for BRaf^V600E-driven tumorigenesis.
Copper is provided primarily through diet. […] Similar copper-reducing strategies may even hold promise as a way to preemptively reduce the incidence of melanoma in high-risk populations. In this regards, there are well-established approaches to regulate the level of copper in humans. Specifically, Wilson's Disease is characterized by a mutation in the copper-transporting gene ATP7B that results in elevated levels of copper in the body (see, e.g., Das, S. K. and Ray, K. (2006) Nat. Clin. Pract. Neurol. 2:482-493). This disease is treated by first lowering copper levels with copper chelators D-penicillamine, trientine or investigative drugs such as ammonium tetrathiomolybdate (TM). Copper levels are then maintained by a copper-restricted diet (e.g., avoidance of copper-rich foods such as shellfish, nuts, chocolate, liver and cooking in copperware) and either zinc acetate, to block copper absorption, or low dose copper chelators (see, e.g., Das, S. K. and Ray, K. (2006), supra). To evaluate if reducing dietary copper could negatively impact melanoma, mice injected with BRaf^V600E-transformed MEFs were either untreated as a control or treated with oral TM to chelate dietary copper.

[6] = S2 cells preincubated 1 hour with 10 μM agent
[7] = S2 cells preincubated 1 hour with 250 μM agent

[SH-].[SH-].[S]=[Mo]=[S] [TTM, tetrathiomolybdate, reference compound]
insulin-stimulated Erk1/2 phosphorylation [1, 6]: reduced the levels of insulin-stimulated Erk1/2 phosphorylation | Mek1 kinase activity in the presence of 2.5 μM CuSO4 ([2]; 50 μM TTM in the presence of CuSO4): blunted

O=S(=O)([O-])c1ccc(-c2nnc(-c3ccccn3)nc2-c2ccc(S(=O)(=O)[O-])cc2)cc1.[Na+].[Na+] [ferrozine]
insulin-stimulated Erk1/2 phosphorylation [1, 6]: did not reduce insulin-stimulated Erk1/2 phosphorylation

Oc1ccc(N=Nc2ccccn2)c(O)c1 [PAR, 4-(2-pyridylazo)resorcinol]
affinity of Cu2+-PAR complex (formation constant β) [3]: 3.2×10^17

bathophenanthroline disulfonate [BPS]
insulin-stimulated Erk1/2 phosphorylation [1, 7]: did not reduce insulin-stimulated Erk1/2 phosphorylation

O=[N+]([O-])[O-].[Ag+] [Ag, silver nitrate]
insulin-stimulated Erk1/2 phosphorylation [1, 6]: clearly diminished the levels of insulin-stimulated Erk1/2 phosphorylation

O=S(=O)([O-])[O-].[Cu+2] [CuSO4]
Mek1 kinase activity, times greater ([2]; 2.5 μM CuSO4, 22° C., 30 minutes): ~20 times

Cc1cc(-c2ccc(S(=O)(=O)O)cc2)c2ccc3c(-c4ccc(S(=O)(=O)O)cc4)cc(C)nc3c2n1 [BCS, bathocupronine disulfonate]
insulin-stimulated Erk1/2 phosphorylation [1, 7]: reduced the levels of insulin-stimulated Erk1/2 phosphorylation

[Cu] [copper]
insulin-stimulated Erk1/2 phosphorylation ([4]; Ctr1+/+ cells, copper added): No additional stimulation was observed | insulin-stimulated Erk1/2 phosphorylation ([4]; Ctr1−/− MEFs preincubated with 25 μM copper for 1 hour prior to insulin stimulation): increased insulin-stimulated Erk1/2 phosphorylation, though not to the same levels as Ctr1^+/+ MEFs

[NH4+].[NH4+].[SH-].[SH-].[S]=[Mo]=[S] [TM, ammonium tetrathiomolybdate]
tumor size versus control tumors at termination of the experiment [5]: nearly five times smaller than the control tumors
